Measurements published in ChEMBL document CHEMBL1124634, “Synthesis and antirhinovirus activity of 6-(dimethylamino)-2-(trifluoromethyl)-9-(substituted benzyl)-9H-purines” (J Med Chem, 1989).

Legend:
[1] = test system: Human rhinovirus sp.; assay: Percent inhibitory activity at 8 uM against rhinoviral 3 serotype in a plaque inhibition assay using monolayers of M-HeLa cells; format: functional
[2] = test system: Human rhinovirus sp.; assay: Percent inhibitory activity at 8 uM against rhinoviral 19s erotype in a plaque inhibition assay using monolayers of M-HeLa cells; format: functional
[3] = test system: Human rhinovirus sp.; assay: Antiviral activity against rhinoviral 9 serotype in a plaque inhibition assay using monolayers of M-HeLa cells; format: functional, organism-based
[4] = test system: Human rhinovirus sp.; assay: Antiviral activity against rhinoviral-1B serotype in a plaque inhibition assay using monolayers of M-HeLa cells; format: functional, organism-based
[5] = Percent inhibitory activity at 8 uM against rhinoviral 18 serotype in a plaque inhibition assay using monolayers of M-HeLa cells; format: functional, Homo sapiens
[6] = test system: Human rhinovirus sp.; assay: Antiviral activity against rhinoviral 2 serotype in a plaque inhibition assay using monolayers of M-HeLa cells; format: functional, organism-based
[7] = test system: Human rhinovirus sp.; assay: Percent inhibitory activity at 8 uM against rhinoviral 21 serotype in a plaque inhibition assay using monolayers of M-HeLa cells; format: functional
[8] = test system: Human rhinovirus sp.; assay: Percent inhibitory activity at 8 uM against rhinoviral 13 serotype in a plaque inhibition assay using monolayers of M-HeLa cells; format: functional
[9] = test system: Human rhinovirus sp.; assay: Percent inhibitory activity at 8 uM against rhinoviral 29 serotype in a plaque inhibition assay using monolayers of M-HeLa cells; format: functional
[10] = test system: Human rhinovirus sp.; assay: Antiviral activity against rhinoviral-1A serotype in a plaque inhibition assay using monolayers of M-HeLa cells; format: functional, organism-based
[11] = test system: Human rhinovirus sp.; assay: Percent inhibitory activity at 8 uM against rhinoviral 4 serotype in a plaque inhibition assay using monolayers of M-HeLa cells; format: functional
[12] = test system: Human rhinovirus sp.; assay: Percent inhibitory activity at 8 uM against rhinoviral 15 serotype in a plaque inhibition assay using monolayers of M-HeLa cells; format: functional
[13] = test system: Human rhinovirus sp.; assay: Antiviral activity against rhinoviral 16 serotype in a plaque inhibition assay using monolayers of M-HeLa cells; format: functional, organism-based
[14] = test system: Human rhinovirus sp.; assay: Percent inhibitory activity at 8 uM against rhinoviral 14 serotype in a plaque inhibition assay using monolayers of M-HeLa cells; format: functional
[15] = test system: Human rhinovirus sp.; assay: Antiviral activity against rhinoviral 5 serotype in a plaque inhibition assay using monolayers of M-HeLa cells; format: functional, organism-based
[16] = test system: Human rhinovirus sp.; assay: Antiviral activity against rhinoviral 12 serotype in a plaque inhibition assay using monolayers of M-HeLa cells; format: functional, organism-based
[17] = test system: Human rhinovirus sp.; assay: Antiviral activity against rhinoviral 8 serotype in a plaque inhibition assay using monolayers of M-HeLa cells; format: functional, organism-based
[18] = test system: Human rhinovirus sp.; assay: Antiviral activity against rhinoviral 30 serotype in a plaque inhibition assay using monolayers of M-HeLa cells; format: functional, organism-based
[19] = test system: Human rhinovirus sp.; assay: Percent inhibitory activity at 8 uM against rhinoviral 31 serotype in a plaque inhibition assay using monolayers of M-HeLa cells; format: functional
[20] = test system: Human rhinovirus sp.; assay: Antiviral activity against rhinoviral 29 serotype in a plaque inhibition assay using monolayers of M-HeLa cells; format: functional, organism-based
[21] = test system: Human rhinovirus sp.; assay: Antiviral activity against rhinoviral 4 serotype in a plaque inhibition assay using monolayers of M-HeLa cells; format: functional, organism-based
[22] = test system: Human rhinovirus sp.; assay: Antiviral activity against rhinoviral 14 serotype in a plaque inhibition assay using monolayers of M-HeLa cells; format: functional, organism-based
[23] = test system: Human rhinovirus sp.; assay: Percent inhibitory activity at 8 uM against rhinoviral 30 serotype in a plaque inhibition assay using monolayers of M-HeLa cells; format: functional
[24] = test system: Human rhinovirus sp.; assay: Antiviral activity against rhinoviral 31 serotype in a plaque inhibition assay using monolayers of M-HeLa cells; format: functional, organism-based
[25] = test system: Human rhinovirus sp.; assay: Antiviral activity against rhinoviral 15 serotype in a plaque inhibition assay using monolayers of M-HeLa cells; format: functional, organism-based
[26] = test system: Human rhinovirus sp.; assay: Antiviral activity against rhinoviral 21 serotype in a plaque inhibition assay using monolayers of M-HeLa cells; format: functional, organism-based
[27] = test system: Human rhinovirus sp.; assay: Antiviral activity against rhinoviral-19 serotype in a plaque inhibition assay using monolayers of M-HeLa cells; format: functional, organism-based
[28] = test system: Human rhinovirus sp.; assay: Antiviral activity against rhinoviral 18 serotype in a plaque inhibition assay using monolayers of M-HeLa cells; format: functional, organism-based
[29] = test system: Human rhinovirus sp.; assay: Percent inhibitory activity at 8 uM against rhinoviral 5 serotype in a plaque inhibition assay using monolayers of M-HeLa cells; format: functional
[30] = Percent inhibitory activity at 8 uM against rhinoviral 2 serotype in a plaque inhibition assay using monolayers of M-HeLa cells; format: functional, Homo sapiens
[31] = test system: Human rhinovirus sp.; assay: Antiviral activity against rhinoviral 19 serotype in a plaque inhibition assay using monolayers of M-HeLa cells; format: functional, organism-based
[32] = Antiviral activity against rhinoviral 13 serotype in a plaque inhibition assay using monolayers of M-HeLa cells; format: functional, cell-based; conditions: Homo sapiens
[33] = test system: Human rhinovirus sp.; assay: Antiviral activity against rhinoviral 3 serotype in a plaque inhibition assay using monolayers of M-HeLa cells; format: functional, organism-based
[34] = Percent inhibitory activity at 8 uM against rhinoviral 8 serotype in a plaque inhibition assay using monolayers of M-HeLa cells; format: functional, Homo sapiens
[35] = test system: Human rhinovirus sp.; assay: Antiviral activity against rhinoviral-18 serotype in a plaque inhibition assay using monolayers of M-HeLa cells; format: functional, organism-based
[36] = Percent inhibitory activity at 4 uM against rhinoviral-1A serotype in a plaque inhibition assay using monolayers of M-HeLa cells; format: functional, Homo sapiens
[37] = Percent inhibitory activity at 10 uM against rhinoviral 5 serotype in a plaque inhibition assay using monolayers of M-HeLa cells; format: functional, Homo sapiens
[38] = Percent inhibitory activity at 4 uM against rhinoviral 2 serotype in a plaque inhibition assay using monolayers of M-HeLa cells; format: functional, Homo sapiens

IC50 [3]	IC50 [4]	IC50 [6]	IC50 [10]	IC50 [13]	IC50 [15]	IC50 [16]	IC50 [17]	IC50 [18]	IC50 [20]	IC50 [21]	IC50 [22]	IC50 [25]	IC50 [28]	Compound	Inhibition [1]	Inhibition [2]	Inhibition [7]	Inhibition [8]	Inhibition [12]	Inhibition [19]	other results
0.93 µM	0.12 µM	6.9 µM	0.58 µM	0.85 µM	> 8 µM	11 µM	8.5 µM	11 µM	–	–	–	–	–	CN(C)c1nc(C(F)(F)F)nc2c1ncn2Cc1ccc(Cl)cc1Cl	17%	40%	30%	20%	10%	28%	Inhibition [5]: 32 µM; Inhibition [9]: 15%; Inhibition [11]: 25%; Inhibition [14]: 35%
1 µM	0.12 µM	5.2 µM	1.4 µM	0.84 µM	> 8 µM	3.3 µM	> 8 µM	–	7 µM	7.6 µM	8 µM	6.1 µM	–	Cc1cc(Cn2cnc3c(N(C)C)nc(C(F)(F)F)nc32)ccc1Cl	44%	–	–	13%	–	–	Inhibition [5]: 28 µM; Inhibition [23]: 31%; IC50 [24]: 9 µM; IC50 [26]: 6.3 µM; IC50 [27]: 7.7 µM
0.87 µM	0.05 µM	–	1.3 µM	1.3 µM	–	8 µM	8 µM	9 µM	4 µM	3.8 µM	7.1 µM	8.7 µM	8.9 µM	CN(C)c1nc(C(F)(F)F)nc2c1ncn2Cc1ccc(F)cc1	35%	22%	34%	42%	–	47%	Inhibition [29]: 11%; Inhibition [30]: 27%
0.65 µM	0.17 µM	5 µM	1.7 µM	0.78 µM	> 8 µM	4 µM	5.1 µM	8.1 µM	5 µM	6 µM	6.6 µM	2 µM	8.2 µM	Cc1ccc(Cn2cnc3c(N(C)C)nc(C(F)(F)F)nc32)cc1C	39%	–	16%	–	–	–	IC50 [31]: 7.1 µM; IC50 [24]: 13 µM; IC50 [32]: > 8 µM
1.9 µM	0.29 µM	–	8 µM	1.9 µM	–	6.5 µM	–	9 µM	6.2 µM	–	–	–	–	Cc1ccccc1Cn1cnc2c(N(C)C)nc(C(F)(F)F)nc21	–	19%	18%	33%	14%	47%	IC50 [33]: 7.5 µM; Inhibition [29]: 40%; Inhibition [34]: 44%; Inhibition [11]: 22%; Inhibition [14]: 31%; IC50 [35]: 7.7 µM
5.6 µM	0.07 µM	8.3 µM	–	1.5 µM	–	8 µM	8.1 µM	–	10 µM	4.1 µM	8.6 µM	–	5.9 µM	CN(C)c1nc(C(F)(F)F)nc2c1ncn2Cc1ccc([N+](=O)[O-])cc1	43%	–	28%	13%	31%	37%	Inhibition [36]: 38 µM; IC50 [31]: 8.8 µM; Inhibition [23]: 28%; Inhibition [37]: 32%
2.2 µM	0.11 µM	–	0.91 µM	1.2 µM	> 8 µM	5.2 µM	> 8 µM	–	7.2 µM	6 µM	7 µM	4.2 µM	6.6 µM	CN(C)c1nc(C(F)(F)F)nc2c1ncn2Cc1ccc(C(F)(F)F)cc1	44%	–	–	22%	–	–	IC50 [31]: 5.2 µM; Inhibition [23]: 40%; IC50 [24]: 6 µM; IC50 [26]: 8.2 µM; Inhibition [38]: 23 µM
